The logP is a log measure of how a compound divides between an organic and an aqueous phase. Lower therefore signals lower lipophilicity. The term solubility denotes how much of the substance goes into solution per volume. Higher therefore signals much dissolved substance.

Consider 32 compounds from the OPERA property sets (Mansouri et al. 2018).

Values after ≈ are worked out from the molar mass of the structure shown.

Conditions in the first data set: not given
`Fc1ccc(C2(Cn3cncn3)OC2c2ccccc2Cl)cc1` (configuration not stated) came in with a log partition coefficient (logP) of 3.44.
On the same count and under the same terms, the value for `CCOCn1c(-c2ccc(Cl)cc2)c(C#N)c(Br)c1C(F)(F)F` was 4.83; that for `COc1ccc(C(O)(c2cncnc2)C2CC2)cc1` (configuration not stated) was 1.91.
The same measure, in the same setting: the same measure for `CC1(C)CON(Cc2ccccc2Cl)C1=O`: 2.5; for `C#CCC1=C(C)C(OC(=O)C2C(C=C(C)C)C2(C)C)CC1=O` (configuration not stated): 4.49; for `CNc1nc(NC(C)C)nc(SC)n1`: 2.38.
Still for that read-out and setting: the value for `CCCN(CCC)C(=O)SCc1ccccc1` was 4.65.
Take `CN(C)C(=O)Nc1cc(C(C)(C)C)on1`: the logP was 1.98.
The compound `N#Cc1c[nH]cc1-c1cccc(Cl)c1Cl` showed a logP of 3.86.
Compound `CCCSP(=S)(OCC)Oc1ccc(Cl)cc1Cl` (configuration not stated) displayed a logP of 5.67.
Same read-out and setting: the same measure for `CCOP(=S)(OCC)OP(=S)(OCC)OCC`: 3.99; for `Cc1nc(N(C)C)nc(OC(=O)N(C)C)c1C`: 1.7; for `CCC1OCC(COc2ccc(Oc3ccccc3)cc2)O1` (configuration not stated): 4.35.
On the same count and under the same terms, the same measure for `CC1(C)C(C=C(Cl)Cl)C1C(=O)OC(C#N)c1ccc(F)c(Oc2ccccc2)c1` (configuration not stated): 5.95.
Still for that read-out and setting: the same measure for `CCCOC(=O)c1ccc(C(=O)OCCC)nc1`: 3.57.
Turning to `CCOS(=O)(=O)c1ccc2c(c1)C(C)(C)CO2`, the logP is 2.41.
As for `CCOC(=O)c1cn2nc(OP(=S)(OCC)OCC)cc2nc1C`, the logP came out at 3.8.
`CS(=O)(=O)NC(=O)c1cc(Oc2ccc(C(F)(F)F)cc2Cl)ccc1[N+](=O)[O-]` returned a logP of 2.9.
The same measure, in the same setting: the same measure for `CC(Oc1ccc(Oc2ccc(Cl)cc2Cl)cc1)C(=O)O` (configuration not stated): 4.58; for `O=C(NC(=O)c1c(F)cccc1F)Nc1ccc(CO/N=C(/c2ccc(Cl)cc2)C2CC2)cc1`: 6.97; for `CCCSP(=O)(OCC)SCCC`: 3.59.
Same read-out and setting: the value for `CCCCOC(=O)C(C)Oc1ccc(Oc2ccc(C(F)(F)F)cn2)cc1` (configuration not stated) was 4.5.

Staying with this data set, now noted: 20 °C.
`CN(C)S(=O)(=O)N(SC(F)(Cl)Cl)c1ccccc1` came in with a solubility of 3.9 µM (≈ 1.3 µg/mL). In other words, the single-digit micromolar range.
`CCCN(CCC)C(=O)SCc1ccccc1` had a solubility of 52.5 µM (≈ 13.2 µg/mL).
Still for that read-out and setting: the same measure for `O=C1c2ccccc2C(=O)C1C(=O)C(c1ccccc1)c1ccc(Cl)cc1` (configuration not stated): 267 µM (≈ 100 µg/mL); for `CC(C)(C)[C@@H](O)[C@@H](Cc1ccc(Cl)cc1)n1cncn1` (single isomer, unassigned): 103 µM (≈ 30.2 µg/mL).

Still in this data set, the particulars now being: 25 °C.
The compound `Nc1c(Cl)c(Cl)nc(C(=O)O)c1Cl` registered a solubility of 1780 µM (≈ 430 µg/mL).
Same read-out and setting: the same measure for `O=c1ccc(=O)[nH][nH]1`: 53500 µM (≈ 6000 µg/mL).
Same read-out and setting: the value for `C#CCC1=C(C)C(OC(=O)C2C(C=C(C)C)C2(C)C)CC1=O` (configuration not stated) was 26.6 µM (≈ 8 µg/mL); that for `CCOC(=O)C1(C)OC(=O)N(c2cc(Cl)cc(Cl)c2)C1=O` (configuration not stated) was 24.1 µM (≈ 8 µg/mL); that for `N#Cc1c[nH]cc1-c1cccc(Cl)c1Cl` was 20.2 µM (≈ 4.8 µg/mL).
The same measure, in the same setting: the same measure for `COc1nc(NC(C)C)nc(NC(C)C)n1`: 3330 µM (≈ 750 µg/mL).
On to `O=C1OCc2c(Cl)c(Cl)c(Cl)c(Cl)c21`, for which the solubility is 9.19 µM (≈ 2.5 µg/mL). Against the preceding compound, the solubility is about 360-fold lower.
Still for that read-out and setting: the value for `COc1ccc(NC(=O)N(C)C)cc1Cl` was 2620 µM (≈ 600 µg/mL); that for `CCOP(=O)(N=C1SCC(C)S1)OCC` (configuration not stated) was 212 µM (≈ 57 µg/mL); that for `CCC1OCC(COc2ccc(Oc3ccccc3)cc2)O1` (configuration not stated) was 16.3 µM (≈ 4.9 µg/mL).

Staying with this data set, now noted: pH 6.5; 23 °C.
In turn, `CCCCOC(=O)C(C)Oc1ccc(Oc2ccc(C(F)(F)F)cn2)cc1` (configuration not stated) came in with a solubility of 3.1 µM (≈ 1.19 µg/mL).
